Measurements as given in PMC11513923, “Discovery of ZLC491 as a Potent, Selective, and Orally Bioavailable CDK12/13 PROTAC Degrader” (Journal of Medicinal Chemistry, 2024).

Experiments:
Assay type in all cases: cell-based
HCC38 cells = assay: Cell proliferation assay (CCK-8); conditions: Homo sapiens, HCC38, 120 h; 5 days
Method: (§1) (A) Transcription level of DDR genes in MDA-MB-231 cells determined by RT-qPCR upon the treatment with vehicle or ZLC491 at different doses for 12 h, ROR1 was used as a negative control; (B) immunoblotting of DDR proteins in MDA-MB-231 cells after the treatment of ZLC491 at different doses for 48 h; (C) cell antiproliferative activity of ZLC491 in multiple TNBC cells as well as several noncancerous cells. Cells were treated with the compound for 5 days; (D,E) antiproliferative potency of cisplatin or olaparib alone or combined with ZLC491 at different doses in MDA-MB-231 cells for 5 days. Data are plotted using the percentage of absorbance relative to DMSO controls. (F) IC50 values and combination index (CI) in drug combination assay. In this model, CI scores estimate the interaction between the two drugs. If CI < 1, the drugs have a synergistic effect and if CI > 1, the drugs have an antagonistic effect. CI = 1 means the drugs have an additive effect. ^aThe drug combination in the table refers to the starting concentration of the two combined drugs, that would both go through serial dilution when treating cells.
(§2) TNBC cell lines MDA-MB-231, MDA-MB-436 and HCC38, human embryonic kidney cell line HEK 293 and human embryonic lung cell line MRC-5 were purchased from American Type Culture Collection (ATCC). Human mammary epithelial cell line MCF 10A was obtained from Chinese Academy of Sciences National Collection of Authenticated Cell Cultures. MDA-MB-231 was maintained in Leibovitz’ s L-15 medium (Gibco) supplemented with 10% fetal bovine serum (FBS; Excell Bio) and 1% penicillin/streptomycin (P/S; Gibco) at 37 °C in a humidified chamber of 100% air atmosphere. MDA-MB-436 and HCC38 were developed in Dulbecco’s modified Eagle medium (DMEM; Gibco) and RPMI-1640 medium (Gibco), respectively, both supplemented with 10% FBS (Excell Bio) and 1% P/S (Gibco), using a 37 °C constant temperature incubator with 5% CO2. HEK 293 and MRC-5 were cultured in the same condition with Eagle’s minimum essential medium (EMEM; Wisent). MCF 10A was grown in Mammary Epithelial Cell Growth Medium BulletKit (Lonza) at 37 °C in a humidified chamber with 5% CO2.
(§3) Tested cells were plated in 96-well or 384-well plates and incubated at 37 °C with or without 5% CO2. After overnight incubation, serial dilutions of compounds were added to the plate. Cell proliferation was measured 5 days after compound treatment using Cell Counting Kit-8 (Selleck) according to the manufacturer’s instructions.

HEK 293 cells = assay: Cell proliferation assay (CCK-8); conditions: Homo sapiens, HEK293, 120 h; 5 days, noncancerous embryonic kidney cells
Method: as §1, §2, §3

MCF 10A cells = assay: Cell proliferation assay (CCK-8); conditions: Homo sapiens, 120 h, 5 days, noncancerous mammary epithelial cells
Method: as §1, §2, §3

MDA-MB-436 cells = assay: Cell proliferation assay (CCK-8); conditions: Homo sapiens, MDA-MB-436, 120 h; 5 days
Method: as §1, §2, §3

MRC-5 cells = assay: Cell proliferation assay (CCK-8); conditions: Homo sapiens, MRC5, 120 h; 5 days, noncancerous embryonic lung cells
Method: as §1, §2, §3

CDK12 = CDK12 (Homo sapiens, UniProt Q9NYV4); assay: CDK12 degradation in MDA-MB-231 cells by immunoblotting; set-up: Immunoblotting of CDK12 and CDK13 in MDA-MB-231 cells treated with increasing concentrations of ZLC491 for 15 h; endogenous in cells; host or cells: MDA-MB-231
Chain of CDK12 (Q9NYV4 whole entry): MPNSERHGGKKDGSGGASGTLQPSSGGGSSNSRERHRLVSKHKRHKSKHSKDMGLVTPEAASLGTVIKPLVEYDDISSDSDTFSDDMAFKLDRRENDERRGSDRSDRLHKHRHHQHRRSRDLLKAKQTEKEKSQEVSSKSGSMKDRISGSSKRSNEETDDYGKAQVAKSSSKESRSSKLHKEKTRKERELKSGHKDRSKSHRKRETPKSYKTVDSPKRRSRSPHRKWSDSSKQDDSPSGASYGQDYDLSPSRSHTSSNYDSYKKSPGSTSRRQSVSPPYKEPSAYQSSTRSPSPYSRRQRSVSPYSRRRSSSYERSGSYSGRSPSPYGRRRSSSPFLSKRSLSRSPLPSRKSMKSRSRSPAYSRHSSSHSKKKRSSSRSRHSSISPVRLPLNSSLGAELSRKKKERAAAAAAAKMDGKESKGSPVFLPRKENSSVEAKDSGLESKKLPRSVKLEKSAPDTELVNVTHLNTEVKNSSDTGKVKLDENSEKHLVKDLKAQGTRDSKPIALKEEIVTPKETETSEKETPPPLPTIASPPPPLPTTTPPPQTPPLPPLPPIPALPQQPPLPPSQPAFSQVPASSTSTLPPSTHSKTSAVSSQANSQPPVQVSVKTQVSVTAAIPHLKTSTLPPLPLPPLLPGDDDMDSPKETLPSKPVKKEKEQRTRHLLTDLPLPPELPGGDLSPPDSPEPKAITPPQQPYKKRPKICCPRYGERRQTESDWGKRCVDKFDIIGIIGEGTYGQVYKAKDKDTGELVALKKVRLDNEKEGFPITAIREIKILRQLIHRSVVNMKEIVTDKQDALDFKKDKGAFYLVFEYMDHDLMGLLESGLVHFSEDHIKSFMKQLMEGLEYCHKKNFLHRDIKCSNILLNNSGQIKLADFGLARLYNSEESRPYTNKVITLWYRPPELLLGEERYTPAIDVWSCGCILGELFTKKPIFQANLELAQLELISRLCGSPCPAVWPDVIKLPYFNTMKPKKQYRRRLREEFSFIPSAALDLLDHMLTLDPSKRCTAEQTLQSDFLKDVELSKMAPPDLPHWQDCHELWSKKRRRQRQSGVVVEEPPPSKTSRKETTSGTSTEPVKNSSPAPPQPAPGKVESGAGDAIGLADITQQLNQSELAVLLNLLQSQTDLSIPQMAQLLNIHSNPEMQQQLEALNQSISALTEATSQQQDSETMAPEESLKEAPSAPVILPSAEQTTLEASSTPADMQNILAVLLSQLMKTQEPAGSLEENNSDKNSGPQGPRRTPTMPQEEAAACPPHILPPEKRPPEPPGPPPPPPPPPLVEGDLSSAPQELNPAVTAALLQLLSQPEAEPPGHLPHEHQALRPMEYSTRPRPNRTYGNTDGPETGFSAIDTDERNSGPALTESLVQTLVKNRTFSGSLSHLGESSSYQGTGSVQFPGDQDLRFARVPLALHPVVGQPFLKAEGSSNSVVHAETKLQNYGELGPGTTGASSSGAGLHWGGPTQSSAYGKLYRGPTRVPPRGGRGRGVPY
Chain of CDK12 (O75909 whole entry partner): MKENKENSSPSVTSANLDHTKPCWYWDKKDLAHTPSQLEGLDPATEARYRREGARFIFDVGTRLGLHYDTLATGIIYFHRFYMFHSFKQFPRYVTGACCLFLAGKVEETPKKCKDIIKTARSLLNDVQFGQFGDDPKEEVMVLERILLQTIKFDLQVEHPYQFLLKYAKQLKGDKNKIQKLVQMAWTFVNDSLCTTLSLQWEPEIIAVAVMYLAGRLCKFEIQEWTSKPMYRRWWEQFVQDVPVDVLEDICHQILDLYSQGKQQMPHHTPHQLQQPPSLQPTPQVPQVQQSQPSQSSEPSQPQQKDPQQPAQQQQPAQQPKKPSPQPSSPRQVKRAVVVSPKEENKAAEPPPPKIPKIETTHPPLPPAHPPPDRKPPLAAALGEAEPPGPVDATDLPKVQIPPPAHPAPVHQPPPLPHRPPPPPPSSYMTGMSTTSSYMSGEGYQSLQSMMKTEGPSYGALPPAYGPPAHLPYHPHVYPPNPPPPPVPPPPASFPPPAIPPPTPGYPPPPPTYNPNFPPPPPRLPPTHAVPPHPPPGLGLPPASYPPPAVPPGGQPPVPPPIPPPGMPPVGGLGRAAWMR
Method in brief: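 MDA-MB-231 cells treated with ZLC491 at increasing concentrations for 15 h (screening at 0.3 μM; time course at 1 μM); SDS lysates immunoblotted, band intensities normalised to α-tubulin. DC50 taken from percent remaining protein versus concentration; representative of three independent experiments.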

Molecule `N#Cc1ccc(N[C@H]2CC[C@H](N(C(=O)NCc3ccccc3)c3ccc(N4CCN(C5CCN(c6cc7c(cc6F)C(=O)N(C6CCC(=O)NC6=O)C7=O)CC5)CC4)cc3)CC2)nc1` (some centres unmarked) [ZLC491, 3-Benzyl-1-((1r,4r)-4-((5-cyanopyridin-2-yl)amino)cyclohexyl)-1-(4-(4-(1-(2-(2,6-dioxopiperidin-3-yl)-6-fluoro-1,3-dioxoisoindolin-5-yl)piperidin-4-yl)piperazin-1-yl)phenyl)urea] has an IC50 (HCC38 cells) of 190 nM, an IC50 (HEK 293 cells) of over 10000 nM and an IC50 (MCF 10A cells) of over 10000 nM. The IC50 (MDA-MB-436 cells) was 120 nM, the IC50 (MRC-5 cells) was over 10000 nM and the “Protein Degradation (%DMSO control, 0.3 μM) CDK12” value (CDK12; MDA-MB-231 cells, 0.3 μM, 15 h, immunoblotting, normalized against α-tubulin) was 85%. For the same molecule, the DC50 (CDK12; MDA-MB-231 cells, 15 h) was 32 nM and the Degradation rates of CDK12 at 0.3 μM (CDK12; supplementary CSV, 0.3 μM) was 85%.
